The results in this text go back to ChEMBL document CHEMBL1201862, “PubChem BioAssay data set” (2004).

Activity calls are given as the source filed them. Where only a bound is given, the exact number is not on record here.

A short description of test [1]: control 3'UTR Renilla luciferase suppression, dose response, counter-screen for Shn3 inhibitor project, cell-based, Clone20-Shn3RL, cherry-picked (AID 624133). The format is functional. (The purpose of a counterscreen is to sort out artefacts and off-target activity.)
Test [2] concerns HEK293. Description: inhibitors of LMP1-driven NF-kB reporter, dose response, cell-based, HEK293, luciferase, cherry-pick (AID 588343). The test is classed as functional. The settings on record: Homo sapiens.
Test [3] can be described thus: Shn3 3'UTR reporter inhibitors, dose response, cell-based, Clone20 osteoblasts, firefly luciferase, cherry-picked (AID 624132).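 Also: firefly luciferase luminescence from reporter carrying the Shn3 3'UTR in osteoblasts.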 The format is functional.
Test [4] in a line: HepG2 cell cytotoxicity, dose response, cytotoxicity control for Shn3 inhibitor project, CellTiter-Glo, cherry-picked (AID 624134). The test is classed as functional, cell-based.
Test [5] addresses Beta-2 adrenergic receptor (Homo sapiens, UniProt P07550). Kind of test: beta2AR agonists driving receptor internalization, dose response, cell-based, FAP fluorogen, flow cytometry, cherry pick 1 (AID 588763). The format is functional. (In general: Flow cytometry measures light scatter and fluorescence of single cells or particles in a stream.)
The next test deals with Aurora kinase A (Homo sapiens, UniProt O14965). The format is functional.
In a further test the target is Aurora kinase B (Homo sapiens, UniProt Q96GD4). The test is classed as functional.
The next test addresses Focal adhesion kinase 1 (Homo sapiens, UniProt Q05397). The format is functional.
Test [6] concerns the target ALK tyrosine kinase receptor (Homo sapiens, UniProt Q9UM73). The format is functional.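 Also: ALK tested as one member of a kinase panel screen.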
In test [7] the test system is HEK293. Kind of test: HEK cell cytotoxicity by LDH release, dose response, cytotoxicity control for IDE activator project, fluorescence, HEK cells (AID 588440).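 Also: cytotoxicity by LDH release measuring loss of membrane integrity.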 The format is functional, cell-based. The settings on record: Homo sapiens. In general terms: LDH in the medium is a marker of cell lysis.
Test [8] addresses T1, Insulin-degrading enzyme (Homo sapiens, UniProt P14735).
T1 sequence (P14735 whole entry): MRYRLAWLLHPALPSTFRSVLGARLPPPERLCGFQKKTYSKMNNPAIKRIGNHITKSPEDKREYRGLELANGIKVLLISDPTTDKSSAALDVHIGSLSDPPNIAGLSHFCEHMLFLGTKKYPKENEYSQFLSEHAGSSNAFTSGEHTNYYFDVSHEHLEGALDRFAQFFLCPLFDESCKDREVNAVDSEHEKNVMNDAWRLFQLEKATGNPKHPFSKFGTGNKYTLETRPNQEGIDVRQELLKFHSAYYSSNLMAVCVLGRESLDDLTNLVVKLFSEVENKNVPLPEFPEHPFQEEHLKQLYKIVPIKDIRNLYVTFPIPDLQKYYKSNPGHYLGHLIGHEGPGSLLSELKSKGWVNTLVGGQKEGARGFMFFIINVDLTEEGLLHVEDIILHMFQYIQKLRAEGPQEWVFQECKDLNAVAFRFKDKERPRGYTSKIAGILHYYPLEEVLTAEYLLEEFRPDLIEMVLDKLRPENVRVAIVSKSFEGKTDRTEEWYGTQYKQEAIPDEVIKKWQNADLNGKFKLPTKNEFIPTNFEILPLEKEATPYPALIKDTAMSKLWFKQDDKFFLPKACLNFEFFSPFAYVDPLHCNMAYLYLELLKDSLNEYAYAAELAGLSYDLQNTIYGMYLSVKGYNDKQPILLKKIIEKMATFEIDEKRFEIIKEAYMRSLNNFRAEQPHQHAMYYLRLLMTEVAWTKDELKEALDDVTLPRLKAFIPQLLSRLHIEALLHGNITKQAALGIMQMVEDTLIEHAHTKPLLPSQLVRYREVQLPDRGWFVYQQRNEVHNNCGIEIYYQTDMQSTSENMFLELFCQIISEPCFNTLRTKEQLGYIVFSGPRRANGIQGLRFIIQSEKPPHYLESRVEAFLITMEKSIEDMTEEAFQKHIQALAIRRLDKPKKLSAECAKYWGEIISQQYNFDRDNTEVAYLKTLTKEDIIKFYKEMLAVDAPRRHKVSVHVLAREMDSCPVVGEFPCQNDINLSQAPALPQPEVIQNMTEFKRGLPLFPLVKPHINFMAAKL
Description: activators of endogenous IDE in HEK cells, dose response, cell-based, fluorescence polarization (AID 588439). The format is functional.

Test [9] concerns the target T1, Insulin-degrading enzyme. Kind of test: activators of recombinant IDE enzyme, dose response, counter-screen for IDE activator project, biochemical, fluorescence polarization (AID 588681).
In test [10] the test system is HEK293. Kind of test: optical interference in Abeta FP readout, dose response, artefact control for IDE activator project, biochemical, fluorescence polarization (AID 588442). The test is classed as functional, cell-based. The settings on record: Homo sapiens.

Aurora kinase B, sequence (Q96GD4 whole entry): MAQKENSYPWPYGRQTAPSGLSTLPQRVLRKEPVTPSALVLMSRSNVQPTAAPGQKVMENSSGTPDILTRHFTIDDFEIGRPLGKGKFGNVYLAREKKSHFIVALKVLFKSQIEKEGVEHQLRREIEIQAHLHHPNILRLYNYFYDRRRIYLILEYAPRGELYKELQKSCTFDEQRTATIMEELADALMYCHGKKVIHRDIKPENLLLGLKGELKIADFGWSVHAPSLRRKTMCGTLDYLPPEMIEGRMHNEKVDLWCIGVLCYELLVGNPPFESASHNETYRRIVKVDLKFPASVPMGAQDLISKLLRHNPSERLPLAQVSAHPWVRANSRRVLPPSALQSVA
Focal adhesion kinase 1, sequence (Q05397 whole entry): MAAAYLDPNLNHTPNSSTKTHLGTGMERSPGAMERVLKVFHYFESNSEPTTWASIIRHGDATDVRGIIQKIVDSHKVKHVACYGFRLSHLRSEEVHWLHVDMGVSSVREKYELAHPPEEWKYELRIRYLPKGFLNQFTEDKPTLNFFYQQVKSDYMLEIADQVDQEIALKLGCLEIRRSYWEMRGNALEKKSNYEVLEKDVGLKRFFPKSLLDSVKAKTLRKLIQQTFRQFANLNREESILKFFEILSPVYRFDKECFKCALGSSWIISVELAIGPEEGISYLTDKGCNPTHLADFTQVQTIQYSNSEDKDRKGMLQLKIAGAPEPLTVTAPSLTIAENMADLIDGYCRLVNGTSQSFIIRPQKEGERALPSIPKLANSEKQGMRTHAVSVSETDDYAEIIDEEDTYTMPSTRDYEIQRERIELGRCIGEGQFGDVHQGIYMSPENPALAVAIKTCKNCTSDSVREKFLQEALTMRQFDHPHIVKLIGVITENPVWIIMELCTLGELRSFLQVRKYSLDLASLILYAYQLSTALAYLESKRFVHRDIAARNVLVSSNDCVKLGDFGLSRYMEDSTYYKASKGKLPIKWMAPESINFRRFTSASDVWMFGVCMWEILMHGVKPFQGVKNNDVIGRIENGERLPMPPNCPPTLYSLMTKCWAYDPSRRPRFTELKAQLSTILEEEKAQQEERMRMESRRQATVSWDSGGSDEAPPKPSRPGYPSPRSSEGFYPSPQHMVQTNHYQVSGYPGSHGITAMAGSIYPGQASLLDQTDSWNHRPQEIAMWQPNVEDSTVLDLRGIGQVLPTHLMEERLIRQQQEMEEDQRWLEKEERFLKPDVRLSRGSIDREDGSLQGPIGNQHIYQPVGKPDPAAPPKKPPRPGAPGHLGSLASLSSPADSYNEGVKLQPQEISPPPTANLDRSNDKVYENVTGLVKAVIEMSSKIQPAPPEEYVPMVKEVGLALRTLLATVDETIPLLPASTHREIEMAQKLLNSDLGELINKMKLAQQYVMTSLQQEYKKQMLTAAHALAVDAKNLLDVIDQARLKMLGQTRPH
ALK tyrosine kinase receptor, sequence (Q9UM73 whole entry): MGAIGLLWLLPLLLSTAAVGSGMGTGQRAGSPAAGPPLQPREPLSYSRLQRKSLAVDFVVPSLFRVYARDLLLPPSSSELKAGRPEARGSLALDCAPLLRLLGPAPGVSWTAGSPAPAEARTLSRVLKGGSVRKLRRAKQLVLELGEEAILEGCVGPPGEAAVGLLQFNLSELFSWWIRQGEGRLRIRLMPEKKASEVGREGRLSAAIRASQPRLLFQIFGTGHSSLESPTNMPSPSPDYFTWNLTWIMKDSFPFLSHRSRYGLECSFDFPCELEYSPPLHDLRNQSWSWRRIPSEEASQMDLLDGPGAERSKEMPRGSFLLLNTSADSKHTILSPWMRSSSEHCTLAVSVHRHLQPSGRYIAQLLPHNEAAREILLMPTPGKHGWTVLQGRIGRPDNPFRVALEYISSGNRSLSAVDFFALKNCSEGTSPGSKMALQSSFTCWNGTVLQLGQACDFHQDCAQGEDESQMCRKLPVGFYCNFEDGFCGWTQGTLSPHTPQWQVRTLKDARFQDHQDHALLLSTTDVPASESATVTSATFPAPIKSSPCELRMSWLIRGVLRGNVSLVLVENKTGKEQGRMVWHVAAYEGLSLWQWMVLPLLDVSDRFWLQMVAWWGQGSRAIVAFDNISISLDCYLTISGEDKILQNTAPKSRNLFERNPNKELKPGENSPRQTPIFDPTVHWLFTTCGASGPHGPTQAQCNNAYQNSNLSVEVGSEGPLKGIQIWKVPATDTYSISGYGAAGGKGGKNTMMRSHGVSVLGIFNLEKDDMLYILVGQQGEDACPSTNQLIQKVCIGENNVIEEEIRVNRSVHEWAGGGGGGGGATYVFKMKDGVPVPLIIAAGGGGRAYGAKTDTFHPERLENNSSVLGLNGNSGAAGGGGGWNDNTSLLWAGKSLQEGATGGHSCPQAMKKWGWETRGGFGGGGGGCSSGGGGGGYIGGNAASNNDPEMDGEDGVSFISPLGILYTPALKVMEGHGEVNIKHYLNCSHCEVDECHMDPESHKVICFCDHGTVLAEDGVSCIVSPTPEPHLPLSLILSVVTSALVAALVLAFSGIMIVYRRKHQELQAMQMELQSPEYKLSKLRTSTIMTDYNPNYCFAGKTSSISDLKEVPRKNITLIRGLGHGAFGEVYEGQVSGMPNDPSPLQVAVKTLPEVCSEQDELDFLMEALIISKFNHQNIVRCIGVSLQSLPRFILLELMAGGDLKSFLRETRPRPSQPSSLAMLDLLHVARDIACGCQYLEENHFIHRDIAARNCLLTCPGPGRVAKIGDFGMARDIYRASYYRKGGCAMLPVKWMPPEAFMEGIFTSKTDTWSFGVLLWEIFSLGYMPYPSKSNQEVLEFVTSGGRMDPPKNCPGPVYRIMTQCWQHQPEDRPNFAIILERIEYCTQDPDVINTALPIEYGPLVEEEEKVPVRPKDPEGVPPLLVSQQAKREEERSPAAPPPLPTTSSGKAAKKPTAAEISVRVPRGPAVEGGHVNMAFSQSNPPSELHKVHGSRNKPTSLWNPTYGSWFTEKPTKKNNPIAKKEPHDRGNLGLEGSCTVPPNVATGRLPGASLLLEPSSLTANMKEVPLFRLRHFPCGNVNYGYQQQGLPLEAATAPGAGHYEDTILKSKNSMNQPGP
Beta-2 adrenergic receptor, sequence (P07550 whole entry): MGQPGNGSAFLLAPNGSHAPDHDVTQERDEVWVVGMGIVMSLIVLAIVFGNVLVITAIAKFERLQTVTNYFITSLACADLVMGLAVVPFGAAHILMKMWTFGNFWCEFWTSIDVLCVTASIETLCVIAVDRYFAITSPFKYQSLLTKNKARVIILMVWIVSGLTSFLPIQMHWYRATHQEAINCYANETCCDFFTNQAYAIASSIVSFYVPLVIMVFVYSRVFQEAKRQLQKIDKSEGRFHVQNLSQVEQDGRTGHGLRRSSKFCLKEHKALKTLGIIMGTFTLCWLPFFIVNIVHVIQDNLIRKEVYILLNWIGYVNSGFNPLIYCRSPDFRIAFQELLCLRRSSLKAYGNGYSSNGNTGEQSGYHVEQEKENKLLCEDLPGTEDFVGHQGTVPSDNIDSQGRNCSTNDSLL
Aurora kinase A, sequence (O14965 whole entry): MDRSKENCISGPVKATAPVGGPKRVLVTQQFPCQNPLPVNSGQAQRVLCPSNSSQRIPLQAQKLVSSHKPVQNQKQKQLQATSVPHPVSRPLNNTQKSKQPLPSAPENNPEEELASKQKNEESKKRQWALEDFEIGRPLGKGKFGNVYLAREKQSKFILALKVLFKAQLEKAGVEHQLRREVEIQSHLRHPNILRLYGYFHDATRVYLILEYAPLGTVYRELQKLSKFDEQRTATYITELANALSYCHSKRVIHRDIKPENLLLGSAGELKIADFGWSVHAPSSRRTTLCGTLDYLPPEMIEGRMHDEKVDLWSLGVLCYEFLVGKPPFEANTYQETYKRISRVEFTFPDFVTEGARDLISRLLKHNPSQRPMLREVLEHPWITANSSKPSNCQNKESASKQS

Usually AC50 stands for the concentration at which the activity in the assay is half-maximal. With `Cc1ccccc1C(=O)NC(=S)Nc1ccc(N2CCN(C(=O)c3ccccc3)CC2)cc1`, the AC50 was 7720 nM (active) in test [1], 1700 nM (active) in the test on HEK293 [2], 1880 nM (active) in test [3] and 51500 nM (active) in test [4].
For orientation: EC50 means the concentration that produces a half-maximal response. Turning to `Cc1ccc(N(C)S(=O)(=O)c2cc(-c3cnc(C4CC4)o3)ccc2C)cc1`, the EC50 in [5] was 2460 nM (active).
The Ki is a dissociation constant, usually derived from enzyme kinetics or from competition with a known ligand. Consider `Cc1cc(N2CCOCC2)cc2[nH]c(-c3c(NCC(O)c4ccccc4)cc[nH]c3=O)nc12` (stereo not drawn), for which the Ki on Aurora kinase A is 251 nM (active); at Aurora kinase B, 50.1 nM (active); on Focal adhesion kinase 1 it was 31.6 nM (active); in test [6], 79.4 nM (active).
A word on the IC50: it is the concentration that inhibits the measured activity by half. With `O=C(COc1cccc2cccnc12)Nc1cccc(S(=O)(=O)N2CCCC2)c1`, in the test on HEK293 [7], the IC50 is > 89200 nM (inactive). Besides, the EC50 on Insulin-degrading enzyme [8] was > 54700 nM (inactive); at Insulin-degrading enzyme [9], > 54700 nM (inactive); in the test on HEK293 [10] it was > 55900 nM (inactive).
